The results in this text go back to patent US12667584B2, “Adenosine analog and its use in regulating the circadian clock” (NATIONAL INSTITUTE OF BIOLOGICAL SCIENCES, BEIJING, priority 2017, dated 2026).

The target of this assay is Ruvbl2 (Homo sapiens, UniProt Q9Y230). As to the kind of experiment: SPR binding to RUVBL2 protein (Biacore T200). The conditions noted are these: purified RUVBL2. The procedure: Biotinylated Compounds Pull-down, SPR analysis and Immunoprecipitation: The interaction between biotinylated compounds and their target proteins were proceeded as follow. Every 10^8 unsynchronized U2OS cells were collected, homogenized into 2 ml lysis buffer (25 mM MOPS pH7.2, 15 mM EGTA, 15 mM MgCl2, 1 mM DTT, 60 mM β-glycerophosphate, 1 mM Na3VO4, 1 mM NaF, 1 mM phenyl phosphate, Complete Protease Inhibitor Cocktail), and sonicated 6 times for 30 s at 4° C. with a Diagenode bioruptor. After sonication, NP-40 (final 0.5%) was added, incubated 15 min on ice, centrifuged at full speed for 20 min at 4° C. The resultant supernatant was firstly incubated with Pentostatin (final concentration at 5 μg/ml) for 2 h at 4° C. with rotation, and then split into 4 groups. 200 pmol cordycepin, 200 pmol DRB, and DMSO (2 groups, final 0.1%) was added respectively and further incubated for 1 h. […] The eluted protein was analyzed with western blot. The binding affinity of cordycepin against the RUVBL2 protein was measured via SPR technology using a Biacore T200 instrument (GE Healthcare) at room temperature. […] The binding kinetics and binding affinity of cordycepin against the RUVBL2 protein were determined with BIA evaluation software (GE healthcare). […] Immunoprecipitated protein complex was then washed 3 times with IP lysis buffer, boiled and analyzed with western blot. […]
Chain of Ruvbl2 (Q9Y230 whole entry): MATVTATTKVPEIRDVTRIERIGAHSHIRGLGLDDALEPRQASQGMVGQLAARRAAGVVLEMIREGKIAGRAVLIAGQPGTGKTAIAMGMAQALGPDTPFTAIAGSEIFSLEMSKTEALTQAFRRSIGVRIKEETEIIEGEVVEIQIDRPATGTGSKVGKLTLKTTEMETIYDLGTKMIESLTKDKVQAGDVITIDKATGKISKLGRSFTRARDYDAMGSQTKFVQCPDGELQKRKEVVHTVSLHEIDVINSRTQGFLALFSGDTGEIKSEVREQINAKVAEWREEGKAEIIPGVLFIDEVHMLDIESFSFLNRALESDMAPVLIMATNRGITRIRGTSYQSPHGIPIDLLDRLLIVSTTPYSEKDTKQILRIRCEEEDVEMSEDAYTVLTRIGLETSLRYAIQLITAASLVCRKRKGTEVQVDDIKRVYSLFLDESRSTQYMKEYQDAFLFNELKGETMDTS

Compound `Nc1ncnc2c1ncn2[C@@H]1O[C@H](CO)C[C@H]1O` [Cordycepin, 3′-deoxy-adenosine] gave an equilibrium dissociation constant (Kd) of roughly 500 nM.
